How the values were obtained:
[1] = system: NHEK; assay: Cell protection against UVB irradiation, bright-field cell morphology observation; type: cell-based, human; conditions: UVB 30 mJ/cm^2, preventive/curative/combined, observed after 24 hours, data not shown
Protocol: (§1) In the following studies, the capabilities of Gal and C-Gal to protect skin cells (NHEK and NHDF) against various stress agents such as UV irradiations (UVB and UVA), or environmental factors (humidity and temperature) were assessed.
Briefly, using a bright-field imaging microscope, it was studied the effect of the UVB irradiation on NHEK's morphology in various experimental conditions in presence or not of Gal and C-Gal: • “Preventive” condition: Gal or C-Gal was applied on NHEK during 24 hours before UVB irradiation (30 mJ/cm^2), and the morphology of the cells was observed after 24 hours, • “Curative” condition: Gal or C-Gal was applied after UVB irradiation, and the morphology of the cells was observed after 24 hours, • Combined condition “preventive and curative”: Gal or C-Gal was applied before and after UVB irradiation and the morphology of the cells was observed after 24 hours.

[2] = system: NHDF; assay: Cell protection against UVA irradiation, bright-field cell morphology observation; type: cell-based, human; conditions: UVA 10 J/cm^2, curative, observed after 24 hours, data not shown
Protocol: as §1
The same experiments as described above were repeated by using UVA irradiation on NHDF in the following condition: • “Curative” condition: Gal or C-Gal was applied after UVA irradiation (10 J/cm^2), and the morphology of the cells were observed after 24 hours.

[3] = system: normal human dermal fibroblasts (NHDF); assay: Transcriptomic study, mRNA expression by RT-qPCR (Taqman); type: cell-based; conditions: 24 h treatment, vs untreated
Protocol: The mRNA expression was quantified after 24 h of NHDF treatment with both Gal and C-Gal.
mRNA extraction was realized according to the provider recommendations (Qiagen). Briefly, lysis buffer RLT-Plus was added on the cell pellet and the homogenous lysate was transferred in a column. The eluate was mixed with one volume 70° ethanol and was transferred in a pink <<RNeasy>> column. The column was washed with buffer. Elution was realized with RNase-free water and the RNA quantitation was done by D.O. 260 nm, 280 nm, 320 nm measurements (Biotek, Cytation3 & Take3 Plate) with “Nucleic Acid Quantification” software application. mRNA quality was checked using a fragment analyser (Advanced Analytical). Then, mRNA reverse transcription allowing the obtention of cDNA templates was performed on a thermal cycler (Bio-Rad). cDNA templates were used to perform the qPCR. For the transcriptomic study, it was used Biorad predesigned plates for ECM components, antioxidants genes, skin homeostasis. Then, the data generated allowed the automatic calculation using Bio-Rad CFX manager of mRNA expression fold change and p values in comparison to untreated condition.
All data are statistically significant compared to control condition (p value <0.05).

[4] = system: NHEK; assay: Cell protection against environmental stress (heat, hydric), bright-field cell morphology observation; type: cell-based, human; conditions: heat stress 37 to 44° C. 30 min, hydric stress 90% to 45% relative humidity, or both, data not shown
Protocol: as §1
Finally, the effect of environmental stress on cell morphology was studied in NHEK treated with and without Gal or C-Gal (using a bright-field imaging microscope). The environmental stress applied were either a heat stress (increase in temperature from 37° C. to 44° C. during 30 min), or an hydric stress “modulation of relative humidity from 90% to 45%” or a combination of both stresses “heat plus hydric stresses”.

[5] = system: HSP27; assay: HSP27 protein expression by immunostaining; type: cell-based, human; conditions: NHDF, 24 h treatment, basal (non stressed) condition; FIG. 5
Protocol: NHDF were treated with Gal or C-Gal for 24 h (treated cells). […] Pictures were realized with a Nikon microscope (Eclipse Ti2). The quantification of HSP27 was measured by image analysis of fluorescence intensity per cell using Image J software. The statistical analysis (Dunnett) was realized with Minitab software (*p<0.05 compared to control). Results were obtained by performing three independent assays.

Structure (SMILES): OC[C@H]1O[C@H](O[C@@H]2[C@@H](O)[C@H](O)[C@@H](O)[C@H](O)[C@@H]2O)[C@H](O)[C@@H](O)[C@H]1O [Gal, 3-O-α-D-galactopyranosyl-D-myo-inositol]
- cell morphology [1]: quite regular and expected cells morphology
- cell number vs stress condition alone [1]: more cells are present
- cell morphology [2]: quite regular and expected cells morphology
- cell number vs stress condition alone [2]: more cells are present
- ECM genes and proteins expressions (COL5A1, ELN, SDC4, VCAN, LAMC2, LUM, ITGA1) ([3]; p value <0.05, FIG. 2): modulation
- antioxidant genes expression (NQO1, HMOX1, GPX1, G6PD) ([3]; p value <0.05, FIG. 3): modulated
- growth factors gene expression (TGF Beta 1 and NGF) ([3]; p value <0.05, FIG. 4): upregulation
- heat shock proteins gene expression (HSPA1A and HSP90AA) ([3]; p value <0.05, FIG. 4): upregulation
- mRNA expressions of PCNA, MKi67 and GADD45A (DNA repair and cell proliferation) ([3]; p value <0.05, FIG. 4): upregulation
- cell morphology [4]: quite regular and expected cells morphology
- HSP27 expression (fluorescence intensity per cell) [5]: clear stimulation

From US20250041194A1, “COMPOSITION COMPRISING GALACTINOL AND USE THEREOF” (Clariant International Ltd, priority 2021, published 2025)
